Target: T1, human KV 1.5 (IKur) (Homo sapiens, UniProt P22460)
T1 construct: expressed in transfected cells
Assay: Block of IKur current in patch clamped L-929 cells expressing human Kv1.5
Assay type: cell-based
Conditions: L929, patch clamped mammalian L-929 cells stably expressing human Kv1.5, read-out: Percentage inhibition of Kv1.5 in L-929 cells at 0.3 μM
Description: Assays to determine the degree of activity of a compound as an IKur inhibitor are well known in the art and are described in references such as J. Gen. Physiol., 101(4):513-543 (April 1993), and Br. J. Pharmacol., 115(2):267-274 (May 1995).
Synders, D. J. et al., “A rapidly activating and slowly inactivating potassium channel cloned from human heart: functional analysis after stable mammalian cell culture expression”, J. Gen. Physiol., 101:513-543 (1993). • 2. Zhou, Z. et al., “Block of HERG potassium channels by the antihistamine astemizole and its metabolites desmethylastemizole and norastemizole”, J. Cardiovasc. Electrophysiol., 10(6):836-843 (1999).

T1 sequence (P22460 whole entry): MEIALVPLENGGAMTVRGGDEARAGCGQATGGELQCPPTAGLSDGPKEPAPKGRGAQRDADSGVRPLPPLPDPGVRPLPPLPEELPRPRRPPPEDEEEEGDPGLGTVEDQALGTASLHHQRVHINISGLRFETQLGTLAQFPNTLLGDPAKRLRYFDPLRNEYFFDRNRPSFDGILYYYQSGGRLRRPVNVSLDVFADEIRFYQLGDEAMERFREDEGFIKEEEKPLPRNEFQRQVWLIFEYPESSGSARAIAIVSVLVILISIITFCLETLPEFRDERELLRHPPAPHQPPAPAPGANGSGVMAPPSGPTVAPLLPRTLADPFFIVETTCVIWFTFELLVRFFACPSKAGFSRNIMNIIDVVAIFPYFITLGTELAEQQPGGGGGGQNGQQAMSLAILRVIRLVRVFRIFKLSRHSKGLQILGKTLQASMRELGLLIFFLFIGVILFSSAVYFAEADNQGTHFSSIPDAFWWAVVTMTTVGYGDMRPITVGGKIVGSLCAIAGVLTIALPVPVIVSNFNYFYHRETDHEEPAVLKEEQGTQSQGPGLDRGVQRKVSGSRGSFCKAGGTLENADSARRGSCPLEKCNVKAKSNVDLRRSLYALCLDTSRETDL

Structure (SMILES) | inhibition at 0.3 µM
CC(=O)NS(=O)(=O)c1cncc(-c2cc(NCc3ccccc3)c3c(-c4ccccc4)ccn3n2)c1 [Example 2, N-((5-(4-(Benzylamino)-5-phenylpyrrolo[1,2-b]pyridazin-2-yl)pyridin-3-yl)sulfonyl)acetamide] | 37%
CC(=O)Nc1cncc(-c2cc(NCc3ccccc3)c3c(-c4ccccc4)ccn3n2)c1 [Example 3, N-(5-(4-(Benzylamino)-5-phenylpyrrolo[1,2-b]pyridazin-2-yl)pyridin-3-yl)acetamide] | 98%
CS(=O)(=O)Nc1cncc(-c2cc(NCc3ccccc3)c3c(-c4ccccc4)ccn3n2)c1 [Example 4, N-(5-(4-(Benzylamino)-5-phenylpyrrolo[1,2-b]pyridazin-2-yl)pyridin-3-yl)methanesulfonamide] | 98%

Further lines, results first:

inhibition at 0.3 µM | Structure (SMILES)
34% | CCOC(=O)c1cncc(-c2cc(NCc3ccccc3)c3c(-c4cncc(C(=O)OCC)c4)ccn3n2)c1 [Example 5, Diethyl 5,5′-(4-(benzylamino)pyrrolo[1,2-b]pyridazine-2,5-diyl)dinicotinate]
95% | NS(=O)(=O)c1cncc(-c2cc(NCc3ccccc3)c3c(-c4cccc(F)c4)ccn3n2)c1 [Example 6, 5-(4-(Benzylamino)-5-(3-fluorophenyl)pyrrolo[1,2-b]pyridazin-2-yl)-pyridine-3-sulfonamide]
99% | NS(=O)(=O)c1cncc(-c2cc(NCc3ccccc3)c3c(-c4ccccc4)ccn3n2)c1 [Example 1, 5-(4-(Benzylamino)-5-phenylpyrrolo[1,2-b]pyridazin-2-yl)pyridine-3-sulfonamide]

From US9458164B2, “Pyrrolopyridazines as potassium ion channel inhibitors” (BRISTOL-MYERS SQUIBB COMPANY, priority 2013, dated 2016)
